# Assay results from US7193044B1, “Compounds and methods for regulating apoptosis, and methods of making and screening for compounds that regulate apoptosis” (Immunogen, Inc., priority 2000, dated 2007).
# Entries after “also recorded” stand apart in the source; their conditions may differ. Non-standard residues stand in square brackets, D forms with d. No end group written: not given here. pS = N[C@@H](COP(=O)(O)O)C(=O)O
# Assays:
# [1] = test system: BAD Ser155 phosphorylation in HeLa cells; assay: BAD phosphorylation in HeLa cells (western blot band-shift / anti-phospho-Ser155 antibody); format: cell-based, human; conditions: for induction of band-shift (Ser155 phosphorylation) of HA-BAD S112A/S136A: transfected HeLa cells treated with the agent; for Ser155 phosphorylation following growth factor stimulation: results not shown
# Protocol: A mammalian expression vector encoding mutant HA-BAD S155A, derived from the shorter murine BAD of SEQ ID NO:3, was constructed. HA-BAD S155A has an amino acid sequence wherein the serine at a position corresponding to Ser155 is substituted with alanine. A western blot was performed on WCL prepared from cells expressing the shorter murine BAD (SEQ ID NO:3), HA-BAD S112A, HA-BAD S136A, or HA-BAD S155A, and probed with anti-HA antibody.
# A western blot analysis, probed with anti-HA antibody, was performed on lysates produced from the Forskolin treated and untreated (control) cells to determine whether Forskolin could induce the phosphorylation BAD or mutant BAD.
# HeLa cells transiently expressing HA-BAD, HA-BAD S155A, HA-BAD S112A/S136A, or HA-BAD S112A/S136A/S155A were treated with Forskolin or a buffer control.
# The HA-BAD S112A/S136A double mutant was transiently expressed in HeLa cells, and transfected cell cultures were treated with each of the GPCR ligands, individually and as a group. A western blot analysis, probed with anti-HA antibody, was performed on lysates produced from the treated and untreated (negative control) cells. […] Forskolin (FK) and no treatment (−) were positive and negative controls, respectively (FIG. 6(a), […], respectively).
# Non-transfected HeLa cells were treated with Forskolin or L-epinephrine, followed by western blot analysis of cell lysates using anti-BAD antibodies.
# Transformants were treated with L-epinephrine, then lysed and subjected to anti-HA western blot analysis.
# (§1) To further test whether phosphorylation of Ser155 is dependent on the PI 3-kinase/Akt pathway, HeLa cells were transfected with the mutant HA-BAD S155A and pretreated with Wortmannin, an inhibitor of PI 3-kinase. These cells were then stimulated with epidermal growth factor (EGF), lysed and analyzed by western blot analysis.
# For immunoprecipitation of all HA-BAD species, 1 μg of the anti-HA antibody was added to the cell lysates, and incubated at 4° C. for one hour. Protein G agarose (Pierce) was then added (50 μl/fraction of 50% slurry) and followed by a one hour incubation at 4° C. Beads were washed with RIPA buffer, boiled in loading buffer (2% SDS, 10% glycerol, 5% β-ME, 60 mM Tris, pH 6.8, 0.002% Bromophenol Blue) and loaded onto polyacrylamide gels. After electrophoresis, proteins were transferred to nitrocellulose membranes, and blots blocked in western wash buffer (40 mM Tris, pH 8.0, 150 mM NaCl, 0.2% NP-40) with 5% BSA for one hour at room temperature. Blots were incubated with primary antibody diluted in western wash buffer with 3% BSA at room temperature for 1–2 hours, washed with western wash buffer and incubated with secondary HRP-coupled antibody diluted in western wash buffer with 1.5% BSA, and washed extensively. Polypeptides were detected with the ECL chemiluminescence according to the manufacturers instructions (Amersham).
# BAD phosphorylation = BAD phosphorylation (test system not specified)
# From the text: Similarly, inhibitors and activators of protein kinases are known and can be used as therapeutic agents (see, e.g., Levitski, 1994). […] It is preferred that the inhibitors and activators have selective actions on the kinase(s) acting upon the BAD, or fragment of BAD, of the present invention. […] Alternatively, in vivo testing could be done using a number of experimental approaches, and one example, as reported herein, utilizes the endogenous phosphorylation of BAD upon re-addition of IL-3 after withdrawal for two hours. Such standard testing systems could be used to test candidate compounds as inhibitors or activators of BAD phosphorylation.
# GST-Bcl-XL = GST-Bcl-XL (Homo sapiens, UniProt Q07817); assay: In vitro competition binding assay (BH3 peptides blocking GST-Bcl-XL binding to immobilized BAK BH3 peptide, ELISA)
# GST-Bcl-XL, sequence (Q07817 whole entry, the tested form may be a part): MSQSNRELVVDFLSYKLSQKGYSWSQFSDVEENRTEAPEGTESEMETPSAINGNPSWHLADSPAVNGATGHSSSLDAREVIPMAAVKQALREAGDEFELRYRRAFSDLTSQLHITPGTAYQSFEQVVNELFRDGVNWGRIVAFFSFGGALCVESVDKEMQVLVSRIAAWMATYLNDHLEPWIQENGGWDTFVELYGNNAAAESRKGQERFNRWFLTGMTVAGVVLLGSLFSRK
# Protocol: FIG. 3(B) is a graphical representation of the results of an in vitro competition binding assay. Recombinant GST-Bcl-XL was incubated with a BAD BH3 peptide (residues 143–168 of SEQ ID NO: 2) phosphorylated on Ser155 (“BAD BH3-P”), a BAD BH3 peptide (residues 143–168 of SEQ ID NO: 2) unphosphorylated on Ser155 (“BAD BH3”), or a BAK BH3 peptide (residues 71–89; residues 1–20 of SEQ ID NO: 5) as a positive control, at the indicated concentrations. The reaction mixtures were then added to microtiter plates pre-coated with BAK BH3 peptide. The amount of bound GST-Bcl-XL was determined by ELISA using an anti-GST primary antibody and a horse-radish peroxidase-conjugated anti-mouse IgG secondary antibody with ABTS as substrate.
# Whether the addition of a phosphate group on BAD Ser155 interferes with this interaction was tested by measuring the affinity of BAD BH3 peptides for Bcl-XL in an in vitro competition binding assay. Synthetic BAD BH3 peptide encompassing BAD residues 143 to 168, was incubated with recombinant GST-Bcl-XL at the indicated concentrations (FIG. 3(b)). The affinity of the BAD BH3 peptide for GST-Bcl-XL was measured as the ability of the peptide to block subsequent binding of GST-Bcl-XL to a BAK BH3 peptide when the reacted mixture was added to a microtiter plate pre-immobilized with a BAK BH3 peptide, as detected by ELISA (triplicate samples, +/−standard deviation). […]
# [2] = test system: BAD phosphorylation in Rat-1 cells; assay: BAD phosphorylation in Rat-1 cells (western blot band-shift / anti-phospho-Ser155 antibody); format: cell-based; conditions: for induction of band-shift of HA-BAD S112A/S136A: transfected Rat-1 fibroblasts
# From the text: In the absence of a phospho-Ser155 antibody, it was difficult to conclude that this band-shift was solely the result of the phosphorylation of Ser155. However, it appeared that this response was at least primarily due to the phosphorylation at this site. This was based on the combined evidence, both in vitro and in cells, as described above (FIGS. 1, 2 and 4–7) and the fact that Ser155 is the only site of BAD homologous to the substrate consensus sequence of PKA.
# Whether the BAD Ser155 kinase, PKA, is also activated by growth factors, and if so, whether such activation is PI 3-kinase dependent, was investigated. […] Cell lysates were analyzed via western blot analysis, probed using anti-HA antibody. […] However, the magnitude of phosphorylation was weaker and may be more transient, than the effect of Forskolin (FIG. 9(a)). Of note, Ser155 phosphorylation following IGF-1, EGF, or PDGF stimulation was not detected in HeLa cells (results not shown).
# It has been documented that Akt kinase activity, the serine kinase shown to phosphorylate BAD Ser136, is induced by growth factors and is dependent on PI 3-kinase activation (Datta et al., 1997; del Peso et al., 1997). In related experiments, Rat-1 cells were pretreated with either the PKA inhibitor H89, or the PI 3-kinase inhibitor Wortmannin (available, e.g., from Sigma, St. Louis, Mo.), followed by stimulation with Forskolin (also available from Sigma) or PDGF. […] This indicated the shift was PKA dependent (FIG. 9(b), lower panel, compare lanes 5 and 6). […] It therefore presumably had no effect on PDGF-induced activation of PI 3-kinase.
# To examine whether endogenous BAD is phosphorylated on Ser155 in response to growth factors, serum-starved Rat-1 fibroblasts were stimulated with PDGF. Whole cell lysates were prepared and endogenous BAD was immunoprecipitated. Proteins were separated by SDS-PAGE, and Ser155 phosphorylation was analyzed by Western blot using the phospho-S155 antibody and an anti-BAD antibody.
# Akt = Akt activation in HeLa cells (anti-phospho-S473 Akt western blot); format: cell-based, human; conditions: serum-starved HeLa cells, pretreatment then EGF
# From the text: FIG. 10(B) is a series of western blots. Serum-starved HeLa cells expressing HA-BAD S155A, were pretreated with a buffer control (lanes 1 and 2), AG1478 (“AG”) (lane 3), Wortmannin (“Wm”) (lane 4), or H89 (lane 5). The cell cultures were then stimulated with a buffer control (lane 1) or EGF (lanes 2–5). Whole cell lysates were made from the cultures and the proteins were separated by SDS-PAGE. Blots were probed with either an anti-activated EGF receptor antibody (“activated EGFR”) (panel A), an anti-phospho-S473 Akt antibody (“pS473 Akt”) (panel B), or an anti-phospho-S155 BAD antibody (“pS155 BAD”) (panel D). Reblots were probed with either an anti-Akt antibody (“Akt”) (panel C) or an anti-HA BAD antibody (“HA-BAD”) (panel E).
# as §1
molecule,measurement,setting,value
"ACTH: adrenocorticotropic hormone, GPCR ligand (SYSMEHFRWGKPVGKKRRPVKVYPNGAEDESAEAFPLEF; Corticotropin; UniProt P01189 138-176, looked up)",induction of band-shift (Ser155 phosphorylation) of HA-BAD S112A/S136A,[1],"neither TK (FIG. 6(a), lane 3) nor ACTH (FIG. 6(b), lane 5) alone induces a similar band-shift"
CN[C@@H]1C[C@H]2O[C@@](C)([C@@H]1OC)n1c3ccccc3c3c4c(c5c6ccccc6n2c5c31)C(=O)NC4 [staurosporin],effect on BAD phosphorylation,BAD phosphorylation,inhibits BAD phosphorylation
"BAD BH3-P: Synthetic BAD BH3 peptide, residues 143–168 of SEQ ID NO: 2, phosphorylated on Ser155 (AAQRYGRELRRM[pS]DEFEGSFKGLPRP; listed as Mus musculus)",reduction of affinity for Bcl-XL,GST-Bcl-XL; BAD BH3 peptide phosphorylated on Ser155,greater than 100 fold
"CNC[C@H](O)c1ccc(O)c(O)c1 [L-epinephrine, reference compound]",induction of band-shift of endogenous BAD,[1]; non-transfected HeLa cells,resulted in a new band-shift
same,induction of band-shift (Ser155 phosphorylation) of HA-BAD S112A/S136A,[1],induced a significant band-shift; also recorded: resulted in the phosphorylation of this site
PDGF,Ser155 phosphorylation following growth factor stimulation,[1]; HeLa cells,not detected
same,induction of phosphorylation of endogenous BAD on Ser155,"[2]; serum-starved Rat-1 fibroblasts, phospho-S155 antibody",induced the phosphorylation of endogenous BAD on Ser155
same,induction of band-shift of HA-BAD S112A/S136A,[2],induced a band-shift
"COc1cc2ncnc(Nc3cccc(Cl)c3)c2cc1OC [AG1478, reference compound]",inhibition of EGF-induced phosphorylation of BAD on Ser155,"[1]; serum-starved HeLa cells transfected with HA-BAD S155A (so in the source), pretreatment then EGF, anti-phospho-S155 blot",blocked the phosphorylation of both
same,effect on EGF-induced activation/phosphorylation of endogenous Akt,Akt,blocked the phosphorylation of both
IGF-1: insulin-like growth factor 1,Ser155 phosphorylation following growth factor stimulation,[1]; HeLa cells,not detected
same,induction of band-shift of HA-BAD S112A/S136A,[2],induced a band-shift
"BAD BH3: Synthetic BAD BH3 peptide, residues 143–168 of SEQ ID NO: 2, unphosphorylated on Ser155 (AAQRYGRELRRMSDEFEGSFKGLPRP; listed as Mus musculus)",affinity of BAD BH3 peptide for Bcl-XL,"GST-Bcl-XL; ability to block binding of GST-Bcl-XL to plate-bound BAK BH3 peptide, compared with BAK BH3 control peptide",affinity similar to the BAK BH3 control peptide
"BAD S112A: mutant of shorter murine BAD, serine corresponding to Ser112 substituted with alanine; HA- or GST-tagged",band-shift (phosphorylation) of expressed BAD construct in response to L-epinephrine,[1]; HeLa cells,significant band-shift
CCCCCCCCCCCCCC(=O)O[C@@H]1[C@@H](C)[C@@]2(O)[C@@H](C=C(CO)C[C@]3(O)C(=O)C(C)=C[C@@H]23)[C@@H]2C(C)(C)[C@]12OC(C)=O [PMA],effect on BAD phosphorylation,BAD phosphorylation,promotes BAD phosphorylation
